Measurements published in US4474811A, “Anti-inflammatory ophthalmic solution and process for preparing the same” (Kakenyaku Kako Co., Ltd., priority 1981, dated 1984).
Counter-ions that a name gives are not always drawn. Like-named read-outs stand apart in the source and are kept apart here.

Columns and labels:
[1] = cited from earlier work
[2] = system: blood-aqueous barrier; details: adding IM instillation vs adding no IM instillation; cited from earlier work
[3] = system: intraocular pressure elevation and aqueous humor protein increase; details: rabbits; arachidonic acid; suspensions, FP as aqueous solution; Invest. Ophthalmol., 15(10), 841 to 844 (1976); cited from earlier work
[4] = oil preparation; cited from earlier work
[5] = system: eye ball; details: oil preparation, topical instillation to the eye ball; cited from earlier work
[6] = system: intraocular pressure; details: subconjunctival injection, cited from earlier work
[7] = system: human eye; assay: Irritation of FP to the human eye (general statement); format: in vivo; details: concentration of FP above 0.2%
Description: Under the coexistence with β-CD or γ-CD, the solubility of FP in a high concentration can be attained and the decrement of the above-mentioned irritation can be attained even by the use of FP in a high concentration. Moreover, an ophthalmic solution containing FP stable for a long term is obtained by coexisting FP with β-CD or γ-CD.

[8] = system: carrageenan-induced edema; details: administered orally, rat; cited from earlier work
[9] = system: biosynthesis of PGs from arachidonic acid; details: lung homogenate of guinea pig; cited from earlier work
[10] = cited from earlier work; remark: listed apart in the source
[11] = system: quinine or PGs system; details: compared with known nonsteroidal anti-inflammatory agents; cited from earlier work
[12] = system: eye of the rabbits (pupillary diameter); assay: Mydriasis effect of atropine (Test Example 4); format: in vivo, rabbit; details: 1 w/v % atropine sulfate, 40 μl.
Procedure: Mydriasis induced by atropine instillation was first observed, assuming that a mydriasis treatment is usually performed prior to operation.
The test was performed using 5 rabbits, and a drop (40 μl.) of a 1 w/v % solution of atropine sulfate in physiological salt solution was instilled to the right eye of the rabbits, and the change of status of the eye with lapse of time was observed by the photographic determination of pupillary diameter. The pupillary diameter difference [(the pupillary diameter at each time after instillation)--(the pupillary diameter before instillation)] and rate of mydriasis (%), which was calculated according to the following formula, were determined. [formula] The pupillary diameter difference and the rate of mydriasis in FIG. 5 are the mean values as to 5 rabbits.

## CC(=O)Oc1ccccc1C(=O)O [aspirin]
[1]; in vivo, po
  side effect: digestive trouble

## COc1ccc2c(c1)c(CC(=O)O)c(C)n2C(=O)c1ccc(Cl)cc1 [indomethacin]
[2]
  inhibition on increase of permeability of blood-aqueous barrier after operation, relative to no IM instillation: about 3 times
[3]
  inhibitory effect on the intraocular pressure elevation and aqueous humor protein increase: particularly strong inhibitory effects
[1]; oral administration in large amounts
  side effect: digestive trouble
[4]
  stability of the preparation: poor
[5]
  feeling in use: bad

## polyphloretin phosphate
[6]; glaucomatocyclitic crisis
  effect on intraocular pressure: effect of decreasing the intraocular pressure
[6]
  pain: causes pain to a patient and eye pain or smart feeling is strong

## Cc1ccc(Cl)c(Nc2ccccc2C(=O)O)c1Cl [meclofenamic acid]
[3]
  inhibitory effect on the intraocular pressure elevation and aqueous humor protein increase: particularly strong inhibitory effects

## CC(C(=O)O)c1ccc(-c2ccccc2)c(F)c1 (centres unmarked) [FP, 2-(2-fluoro-4-biphenylyl)propionic acid]
[7]
  irritation to the human eye: enhanced
[8]
  anti-inflammatory effect relative to aspirin: 250 times
  anti-inflammatory effect relative to indomethacin: 14 times
[9]
  inhibitory effect on biosynthesis of PGs relative to aspirin: 2,280 times
  inhibitory effect on biosynthesis of PGs relative to indomethacin: 10 times
[3]
  inhibitory effect on the intraocular pressure elevation and aqueous humor protein increase: particularly strong inhibitory effects
[10]
  solubility: limited solubility
[11]
  strength of inhibitory effect: the strongest among known nonsteroidal anti-inflammatory agents

## COc1ccc(-c2[nH]c3ccccc3c2-c2ccc(OC)cc2)cc1 [indoxole]
[3]
  inhibitory effect on the intraocular pressure elevation and aqueous humor protein increase: particularly strong inhibitory effects

## CN1[C@@H]2CC[C@H]1C[C@@H](OC(=O)C(CO)c1ccccc1)C2 (some centres unmarked) [atropine, atropine sulfate]
[12]
  time to maximum pupillary diameter: one
[12]; even after 6 hours from the instillation
  change in the maximum pupillary diameter: no change
